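48-hour exposure; five concentrations; linearly interpolated endpoints. Abbreviation: GI50, concentration required for 50% inhibition of growth. TGI: concentration producing complete growth inhibition.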
Legend:
Experiment in all cases: DTP human tumour cell line panel, 48 h
A549 NSCLC = tested on: A549 NSCLC
HCC-2998 colon = tested on: HCC-2998 colon
HCT-15 colon = tested on: HCT-15 colon
K-562 leukemia = tested on: K-562 leukemia
KM12 colon = tested on: KM12 colon
M14 melanoma = tested on: M14 melanoma
NCI-H226 lung = tested on: NCI-H226 lung
NCI-H23 lung = tested on: NCI-H23 lung
RXF 393 renal = tested on: RXF 393 renal
UACC-257 melanoma = tested on: UACC-257 melanoma

Row | Structure (SMILES) | TGI (A549 NSCLC) | TGI (HCC-2998 colon) | TGI (HCT-15 colon) | TGI (K-562 leukemia) | TGI (KM12 colon) | TGI (M14 melanoma) | TGI (NCI-H226 lung) | TGI (NCI-H23 lung) | TGI (RXF 393 renal) | TGI (UACC-257 melanoma) | GI50 (A549 NSCLC) | GI50 (HCC-2998 colon) | GI50 (HCT-15 colon) | GI50 (K-562 leukemia) | GI50 (KM12 colon) | GI50 (M14 melanoma) | GI50 (NCI-H226 lung) | GI50 (NCI-H23 lung) | GI50 (RXF 393 renal) | GI50 (UACC-257 melanoma)
1 | O=C(N[C@H]1CC2(C=C(I)C(=O)C(I)=C2)OC1=O)OCc1ccccc1 | > 100 µM | 34.6 µM | 44.2 µM | 33.5 µM | 29.5 µM | 31.2 µM | 90.3 µM | 32.6 µM | 28.8 µM | 32.4 µM |  |  |  |  |  |  |  |  |  | 
2 | CCCCCCC1CCCCN1C(c1ccccc1)C(O)c1ccccc1 (centres undefined) | 21.4 µM | 10.4 µM | 18.1 µM | 21.7 µM | 19.4 µM | 11.4 µM | 21.9 µM | 20.9 µM | 6.77 µM | 18.1 µM | 7.62 µM | 3.65 µM | 5.39 µM | 4.23 µM | 6.07 µM | 2.95 µM | 7.74 µM | 6.33 µM | 2.18 µM | 4.79 µM
3 | O=[N+]([O-])/C(=C/C=C/c1ccccc1)c1ccccc1 | 6.79 µM | 4.14 µM | 4.22 µM | 5 µM | 4.29 µM | 5.31 µM | 12.4 µM | 6.16 µM | 3.84 µM | 9.32 µM | 2.41 µM | 1.92 µM | 1.86 µM | 1.7 µM | 2.04 µM | 2.02 µM | 6.07 µM | 2.25 µM | 1.81 µM | 2.74 µM
4 | O=C1Cc2c([nH]c3ccccc23)-c2cc(Br)ccc2N1 | > 100 µM | > 100 µM | > 100 µM | > 100 µM | > 100 µM | > 100 µM | > 100 µM | > 100 µM | > 100 µM | > 100 µM |  |  |  |  |  |  |  |  |  | 
5 | CN(Cc1cnc2nc(N)nc(N)c2n1)c1c(Cl)cc(C(=O)NC(CCC(=O)O)C(=O)O)cc1Br (centres undefined) | > 100 µM | 0.153 µM | > 100 µM | > 100 µM | > 100 µM | > 100 µM | > 100 µM | > 100 µM | > 100 µM | > 100 µM | < 0.01 µM | < 0.01 µM | < 0.01 µM | < 0.01 µM | < 0.01 µM | < 0.01 µM | 0.0237 µM | 0.016 µM | 0.345 µM | 
6 | CCCC/C=C1/CCC(CN(C)C)C1=O (centres undefined) | 16.5 µM | 3.07 µM | 1.08 µM | 3.79 µM | 2.31 µM | 3.26 µM | 22.8 µM | 8.18 µM | 3.38 µM | 5.26 µM |  |  |  |  |  |  |  |  |  | 
7 | CNC(=O)N(CCCCC(NC(C)=O)C(=O)NCc1ccccc1)Cc1ccccc1 (centres undefined) | > 100 µM | > 100 µM | > 100 µM | > 100 µM | > 100 µM | > 100 µM | > 100 µM | > 100 µM | > 100 µM | > 100 µM |  |  |  |  |  |  |  |  |  | 
8 | COc1ccc(S(=O)(=O)NNS(C)(=O)=O)cc1OC | > 100 µM | > 100 µM | > 100 µM | > 100 µM | > 100 µM | > 100 µM | > 100 µM | > 100 µM | > 100 µM | > 100 µM |  |  |  |  |  |  |  |  |  | 
9 | O=S1(=O)CS(=O)(=O)OCCCCCO1 | > 100 µM | > 100 µM | > 100 µM | > 100 µM | > 100 µM | > 100 µM | > 100 µM | > 100 µM | > 100 µM | > 100 µM |  |  |  |  |  |  |  |  |  | 
10 | COc1cc(C(=O)/C=C/c2c(C)n([O-])c3ccc(Cl)cc3[n+]2=O)cc(OC)c1OC | > 100 µM | 38.7 µM | 30.9 µM | > 100 µM | > 100 µM | > 100 µM | > 100 µM | 68.6 µM | 91 µM | > 100 µM | 25.4 µM | 12.8 µM | 4.26 µM | 3.09 µM | 23.2 µM | 4.59 µM | 32.6 µM | 7.59 µM | 3.37 µM | 19.5 µM
11 | O=C([CH-]C(=O)c1ccccc1)c1ccccc1.[CH2-]C.[CH2-]C.[Tl+3] | 66.3 µM | > 100 µM | > 100 µM | 59.6 µM | > 100 µM | 68.5 µM | 2.38 µM | > 100 µM | 88.7 µM | > 100 µM | 20.7 µM | 28.7 µM | 15.4 µM | 9.92 µM | 49.6 µM | 18.5 µM | 0.0266 µM | 32.3 µM | 16.5 µM | 45.6 µM
12 | Cn1cc(C2=C(c3cccc([N+](=O)[O-])c3)C(=O)NC2=O)c2ccccc21 | > 25 µM | > 25 µM | > 25 µM | > 25 µM | 12.9 µM | > 25 µM | > 19.2 µM | > 25 µM | 9.4 µM | > 22.7 µM | 8.52 µM | 14.5 µM | 7.97 µM | 4.85 µM | 5.05 µM | 12.4 µM | 4.62 µM | 6.66 µM | 2.12 µM | 9.99 µM
13 | CC(C)OC(=O)c1cc(NC(=S)OC(C)C)ccc1Cl | > 66.8 µM | > 57.5 µM | 53.4 µM | > 100 µM | 44.3 µM | > 79.6 µM | 37.6 µM | 68.1 µM | 62.7 µM | 50.9 µM |  |  |  |  |  |  |  |  |  | 
